Measured values from PMC5785474, “Application of Sustainable Natural Resources in Agriculture: Acaricidal and Enzyme Inhibitory Activities of Naphthoquinones and Their Analogs against Psoroptes cuniculi” (Scientific Reports, 2018).

Target: acetylcholinesterase (AChE)
Test: AChE activity in crude mite homogenate supernatant, acetylthiocholine/DTNB assay at […] nm
Format: biochemical, Psoroptes cuniculi

Compound | IC50 (ppm)
CC1=CC(=O)c2c(O)cccc2C1=O [compound 2, Plumbagin] | 29.87 ppm
O=C1C=CC(=O)c2c(O)cccc21 [compound 1, Juglone] | 14.81 ppm
